In ChEMBL document CHEMBL1201862, “PubChem BioAssay data set” (2004):
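Exposure lasted 48 hours, with cells grown in 96-well plates and compounds tested at five concentrations. At the GI50, growth is halved.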 Calls of active or inactive are those of the source. Rule as the data show it: active = GI50 up to about 1.1 µM and inactive = higher.

Assays:
Assay in all cases: DTP human tumour cell line panel, 48 h
A498 = tested on: A498
A549 = tested on: A549
ACHN = tested on: ACHN
Hs-578T = tested on: Hs-578T
M14 = tested on: M14
MDA-MB-231 = tested on: MDA-MB-231
NCI-H23 = tested on: NCI-H23
NCI-H522 = tested on: NCI-H522
OVCAR-5 = tested on: OVCAR-5
RPMI-8226 = tested on: RPMI-8226
RXF 393 = tested on: RXF 393
SF-268 = tested on: SF-268
SF-539 = tested on: SF-539
SK-MEL-5 = tested on: SK-MEL-5
SK-OV-3 = tested on: SK-OV-3
U-251 = tested on: U-251
UACC-257 = tested on: UACC-257
UACC-62 = tested on: UACC-62
HCC 2998 = tested on: HCC 2998

Structure (SMILES)	GI50 (A498)	GI50 (A549)	GI50 (ACHN)	GI50 (Hs-578T)	GI50 (M14)	GI50 (MDA-MB-231)	GI50 (NCI-H23)	GI50 (NCI-H522)	GI50 (OVCAR-5)	GI50 (RPMI-8226)	GI50 (RXF 393)	GI50 (SF-268)	GI50 (SF-539)	GI50 (SK-MEL-5)	GI50 (SK-OV-3)	GI50 (U-251)	GI50 (UACC-257)	GI50 (UACC-62)	GI50 (HCC 2998)
CCNCCC1(CC)C(=O)NC(=O)NC1=O	> 100 µM (inactive)	> 100 µM (inactive)	> 100 µM (inactive)	> 100 µM (inactive)	> 100 µM (inactive)	> 100 µM (inactive)	> 100 µM (inactive)	> 100 µM (inactive)	> 100 µM (inactive)	> 100 µM (inactive)	> 100 µM (inactive)	> 100 µM (inactive)	> 100 µM (inactive)	> 100 µM (inactive)	> 100 µM (inactive)	> 100 µM (inactive)	> 100 µM (inactive)	> 100 µM (inactive)	
O=C1CSC(c2cccc(Oc3ccccc3)c2)N1c1ccc(Cl)cc1 (centres undefined)	17.5 µM (inactive)	31.9 µM (inactive)	26.1 µM (inactive)	32.9 µM (inactive)	15 µM (inactive)	27.4 µM (inactive)	25.5 µM (inactive)	16.3 µM (inactive)	65.5 µM (inactive)		20.4 µM (inactive)	30.3 µM (inactive)	32.1 µM (inactive)	11.9 µM (inactive)	66.4 µM (inactive)	31 µM (inactive)	17.4 µM (inactive)	10.8 µM (inactive)	
C/C=C\C(CC(=O)NCCC1CN(S(=O)(=O)C(F)(F)F)c2ccccc21)CC(=O)OC (centres undefined)	62.8 µM (inactive)	45.8 µM (inactive)	37.6 µM (inactive)	22.6 µM (inactive)	36.5 µM (inactive)	50.8 µM (inactive)	34.7 µM (inactive)	18.3 µM (inactive)	58.6 µM (inactive)	31.8 µM (inactive)	36.3 µM (inactive)			16.9 µM (inactive)	64.3 µM (inactive)	59.3 µM (inactive)	48.2 µM (inactive)	34.1 µM (inactive)	53.3 µM (inactive)
Cc1n[nH]c(=S)n1/N=C/c1ccc(-c2ccc(Cl)cc2)o1	> 100 µM (inactive)	> 100 µM (inactive)	63.7 µM (inactive)	37.5 µM (inactive)	> 100 µM (inactive)	73.5 µM (inactive)	39.6 µM (inactive)	> 100 µM (inactive)	> 100 µM (inactive)	> 100 µM (inactive)	43 µM (inactive)	29.2 µM (inactive)	77.1 µM (inactive)	> 100 µM (inactive)		31.6 µM (inactive)	> 100 µM (inactive)		
Cc1ccc(-n2cc(-c3ccc(Cl)cc3)c3c(N/N=C4\SCC(=O)N4C)ncnc32)cc1	11.5 µM (inactive)	4.72 µM (inactive)	7.36 µM (inactive)	3.59 µM (inactive)	4.78 µM (inactive)	4.99 µM (inactive)	3.9 µM (inactive)	5.27 µM (inactive)	45.4 µM (inactive)	12.9 µM (inactive)	7.18 µM (inactive)	7.05 µM (inactive)	12 µM (inactive)	3.81 µM (inactive)	2.54 µM (inactive)	6.71 µM (inactive)	4.66 µM (inactive)	3.44 µM (inactive)	
C/C(=N\NC(=O)c1ccccc1O)c1cccc(/C(C)=N/NC(=O)c2ccccc2O)n1	37.8 µM (inactive)	9.23 µM (inactive)	4.27 µM (inactive)	> 65.2 µM (inactive)	12.6 µM (inactive)	19.4 µM (inactive)				14.7 µM (inactive)	8.55 µM (inactive)	3.41 µM (inactive)		6.97 µM (inactive)	4.12 µM (inactive)			2.58 µM (inactive)	1.02 µM (active)
